The results in this text go back to article PMC10830462, “Molecular insights into the dynamic modulation of bacterial ClpP function and oligomerization by peptidomimetic boronate compounds” (Scientific Reports, 2024).

Type in all cases: binding
Assay [1] deals with T1, SeClpP (ClpP from Staphylococcus epidermidis) (Staphylococcus epidermidis, UniProt Q8CTE0).
T1 construct: codon-optimised ORF in pET28a(+), C-terminal His-tag, expressed in E. coli BL21(DE3) Star; homotetradecamer (about 300 kDa) of two stacked heptameric rings, heptamers also present without glycerol; catalytic triad Ser98, His123, Asp172
T1 sequence (Q8CTE0 1-194): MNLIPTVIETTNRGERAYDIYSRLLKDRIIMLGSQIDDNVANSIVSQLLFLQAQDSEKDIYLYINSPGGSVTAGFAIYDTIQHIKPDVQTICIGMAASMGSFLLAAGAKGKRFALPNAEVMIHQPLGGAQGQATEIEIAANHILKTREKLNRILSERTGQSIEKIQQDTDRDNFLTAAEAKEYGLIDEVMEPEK
Put plainly: nanoDSF thermal shift. As to conditions: 10 µM SeClpP, pH 7.5, 100 mM KCl, 2 mM DTT, no glycerol; covalent (reversible boronate). Background: In DSF a fluorescence change marks the thermal transition of the protein.

The target in assay [2] is T1, SeClpP (ClpP from Staphylococcus epidermidis). Description: isothermal titration calorimetry. As to conditions: read-out: K (converted). In general terms: ITC needs no label: the signal is the heat of the interaction.
Assay [3] has the same target. Put plainly: X-ray crystal structure, soaked crystals, […] Å. The note with it: catalytic site; covalent (boron to Ser98, reversible); crystals soaked with 10 mM ixazomib.

As to `CC(C)C[C@H](NC(=O)CNC(=O)c1cc(Cl)ccc1Cl)B(O)O` [ixazomib], the melting temperature result in assay [1] was “SeClpP bound to the peptidomimetic boronate, and therefore more thermostable”. For the same compound, in assay [2], the Kd is 5.38 µM. Besides, the “X-ray crystal structure, soaked crystals, 2.33 Å” value in assay [3] is reported as “the boron atom of ixazomib is covalently bound to Ser98”.
